pKd: −log10 of the molar value.

For experiment [1], the target named is Nur77-LBD (Homo sapiens, UniProt P22736). As to the kind of experiment: Surface plasmon resonance (SPR) binding to Nur77-LBD. The conditions noted are these: BIAcore T200, 25° C., 1:1 Langmuir binding mode, read-out: Kd when binding to the Nur77-LBD protein. The protocol: A test compound was analyzed for its binding kinetics with Nur77-LBD at 25° C. on a BIAcore T200 machine with CM5 chips. PBSP was used for all measurements. For SPR measurements, Nur77-LBD proteins were purified. A blank channel was used as negative control. About 10,000 response units of Nur77-LBD were immobilized on the chips. When the data collection was finished in each cycle, the sensor surface was regenerated with glycine-HCl at pH 2.5. A serial of concentrations ranging from 0.15 to 5.0 μM of the test compound was used. Sensograms were fit globally with BIAcore T200 analysis using 1:1 Langmuir binding mode.

Experiment [2] concerns MDA-MB-231 (breast cancer). As to the kind of experiment: MTT antiproliferative assay, MDA-MB-231. In kind it is cell-based. Particulars: Homo sapiens, MDA-MB-231, 10 μM, 48 or 72 h, read-out: inhibition of cell growth, MDA-MB-231. In short, it runs like this: (§1)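 Growth inhibition is graded in bands of percent inhibition at 10 μM, taken from MTT read-out at 490 nm and normalised to vehicle-treated wells. Exposure runs 48 or 72 h at 37° C.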

The subject of experiment [3] is HeLa (ovarian cancer). As to the kind of experiment: MTT antiproliferative assay, HeLa. The conditions noted are these: Homo sapiens, 48 or 72 h, read-out: inhibition of cell growth, HELA. In kind it is cell-based. In short, it runs like this:
as §1

Experiment [4] concerns SW620 (colon cancer). As to the kind of experiment: MTT antiproliferative assay, SW620. In kind it is cell-based. Particulars: Homo sapiens, SW-620, SW620, 10 μM, 48 or 72 h, read-out: inhibition of cell growth, SW620. In short, it runs like this: as §1
Background: Tetrazolium dyes change colour on reduction, which living cells bring about.

Experiment [5] has as its system A549 (lung adenocarcinoma). The experiment in a line: MTT antiproliferative assay, A549. The class given is cell-based. The conditions noted are these: Homo sapiens, A549, 10 μM, 48 or 72 h, read-out: inhibition of cell growth, A549. In short, it runs like this:
as §1

The subject of experiment [6] is A431 (epidermoid carcinoma). As to the kind of experiment: MTT antiproliferative assay, A431. The class given is cell-based. Particulars: Homo sapiens, A-431, A431, 10 μM, 48 or 72 h, read-out: inhibition of cell growth, A431. In short, it runs like this: as §1
In experiment [7] the test system is A375 (malignant melanoma). The experiment in a line: MTT antiproliferative assay, A375. The class given is cell-based. Particulars: Homo sapiens, A-375, A375, 10 μM, 48 or 72 h, read-out: inhibition of cell growth, A375. In short, it runs like this:
as §1

Experiment [8] has as its system HepG2 (liver cancer). As to the kind of experiment: MTT antiproliferative assay, HepG2. The class given is cell-based. The conditions noted are these: Homo sapiens, HepG2, 10 μM, 48 or 72 h, read-out: inhibition of cell growth, HepG2. In short, it runs like this: as §1

Nur77-LBD, sequence (P22736 360-595 limits assumed, species assumed): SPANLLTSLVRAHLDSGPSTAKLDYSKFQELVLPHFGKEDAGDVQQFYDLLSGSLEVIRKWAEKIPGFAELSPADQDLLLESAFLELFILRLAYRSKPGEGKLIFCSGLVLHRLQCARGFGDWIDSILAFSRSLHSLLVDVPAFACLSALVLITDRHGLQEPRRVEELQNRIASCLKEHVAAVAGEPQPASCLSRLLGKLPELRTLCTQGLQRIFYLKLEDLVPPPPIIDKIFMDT

In the case of `CNC(=O)[C@]1(C)CC[C@]2(C)CC[C@]3(C)C4=CC=C5C(=CC(=O)C(=O)[C@@]5(C)OC)[C@]4(C)CC[C@@]3(C)[C@@H]2C1` [Compound A7, (2R,4aS,6aS,9S,12bR,14aS,14bR)-9-methoxy-N,2,4a,6a,9,12b,14a-heptamethyl-10,11-dioxo-1,2,3,4,4a,5,6,6a,9,10,11,12b,13,14,14a,14b-hexadecahydropicene-2-carboxamide], the negative-log Kd (pKd) (commonly the Kd on a negative log10 scale, so that one unit is a factor of ten) in experiment [1] is 6.25. Also, the inhibition (commonly the change of the read-out against control, counted positive when it falls) at 10 µM in experiment [2] is at least 80%; in experiment [3], at least 80%; in experiment [4] it was 30 to 50%; in experiment [5], 30 to 50%; in experiment [6] it was 50 to 80%; in experiment [7], 50 to 80%. For the same compound, the inhibition at 10 µM in experiment [8] lay within 50 to 80%.

In the case of `CO[C@]1(C)C(=O)C(=O)C=C2C1=CC=C1[C@@]2(C)CC[C@@]2(C)[C@@H]3C[C@](C)(C(N)=O)CC[C@]3(C)CC[C@]12C` [Compound A9, (2R,4aS,6aS,9S,12bR,14aS,14bR)-9-methoxy-2,4a,6a,9,12b,14a-hexamethyl-10,11-dioxo-1,2,3,4,4a,5,6,6a,9,10,11,12b,13,14,14a,14b-hexadecahydropicene-2-carboxamide], the negative logarithm of the Kd (pKd) in experiment [1] was 6.05. Moreover, the inhibition at 10 µM in experiment [2] was at least 80%; in experiment [3], at least 80%; in experiment [4] it was 50 to 80%; in experiment [5], 30 to 50%; in experiment [6], 50 to 80%; in experiment [7], 30 to 50%. In addition, the inhibition at 10 µM in experiment [8] was 50 to 80%.

Values taken from patent US12570687B2, “Triterpenoid compounds, pharmaceutical compositions thereof, and their use for treating a nuclear receptor subfamily 4 group a member 1-mediated disease” (NUCMITO PHARMACEUTICALS COMPANY LIMITED, priority 2019, dated 2026).
